Experimental data taken from patent US20240358773A1, “Parabacteroides Goldsteinii to Treat or Prevent Inflammatory and AutoImmune Diseases” (Joslin Diabetes Center, priority 2023, published 2024).

Experiments:
[1] = test system: fusion of autophagosomes with lysosomes; assay: Inhibition of autophagosome-lysosome fusion in EV-treated BMDCs, IL-10
[2] = test system: colonic lamina propria (cLP) cells; assay: A2a blockade in antibiotic-pretreated mice given live or killed ASF519, flow cytometry of colonic lamina propria cells; type: in vivo, mouse; conditions: daily i.p. injection
class III PI3K = class III PI3K (Mus musculus, UniProt Q6PF93); assay: Inhibition of autophagosome formation in EV-treated BMDCs, IL-10
Sequence of class III PI3K (Q6PF93 whole entry): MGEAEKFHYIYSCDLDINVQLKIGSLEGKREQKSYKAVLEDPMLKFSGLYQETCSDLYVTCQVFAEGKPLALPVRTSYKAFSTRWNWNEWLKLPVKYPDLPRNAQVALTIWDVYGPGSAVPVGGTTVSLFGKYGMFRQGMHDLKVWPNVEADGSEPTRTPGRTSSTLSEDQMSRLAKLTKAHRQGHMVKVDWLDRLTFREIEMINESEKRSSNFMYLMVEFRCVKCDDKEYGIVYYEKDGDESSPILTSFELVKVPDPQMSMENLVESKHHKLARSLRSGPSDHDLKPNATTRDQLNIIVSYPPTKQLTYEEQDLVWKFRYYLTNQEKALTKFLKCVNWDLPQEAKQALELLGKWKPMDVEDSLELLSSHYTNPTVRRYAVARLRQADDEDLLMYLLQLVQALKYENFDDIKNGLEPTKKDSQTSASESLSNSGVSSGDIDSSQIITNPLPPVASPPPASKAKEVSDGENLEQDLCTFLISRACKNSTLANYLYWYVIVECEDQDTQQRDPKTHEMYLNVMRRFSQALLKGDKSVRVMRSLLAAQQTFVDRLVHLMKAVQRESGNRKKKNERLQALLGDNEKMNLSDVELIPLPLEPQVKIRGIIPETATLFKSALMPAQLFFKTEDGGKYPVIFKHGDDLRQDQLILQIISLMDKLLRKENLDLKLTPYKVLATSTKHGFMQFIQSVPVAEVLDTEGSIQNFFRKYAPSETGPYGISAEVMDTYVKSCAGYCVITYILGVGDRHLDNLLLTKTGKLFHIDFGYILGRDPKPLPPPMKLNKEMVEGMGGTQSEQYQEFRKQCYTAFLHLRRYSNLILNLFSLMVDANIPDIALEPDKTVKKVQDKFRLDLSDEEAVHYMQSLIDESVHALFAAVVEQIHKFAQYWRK
Sequence of class III PI3K (Q8VD65 whole entry partner): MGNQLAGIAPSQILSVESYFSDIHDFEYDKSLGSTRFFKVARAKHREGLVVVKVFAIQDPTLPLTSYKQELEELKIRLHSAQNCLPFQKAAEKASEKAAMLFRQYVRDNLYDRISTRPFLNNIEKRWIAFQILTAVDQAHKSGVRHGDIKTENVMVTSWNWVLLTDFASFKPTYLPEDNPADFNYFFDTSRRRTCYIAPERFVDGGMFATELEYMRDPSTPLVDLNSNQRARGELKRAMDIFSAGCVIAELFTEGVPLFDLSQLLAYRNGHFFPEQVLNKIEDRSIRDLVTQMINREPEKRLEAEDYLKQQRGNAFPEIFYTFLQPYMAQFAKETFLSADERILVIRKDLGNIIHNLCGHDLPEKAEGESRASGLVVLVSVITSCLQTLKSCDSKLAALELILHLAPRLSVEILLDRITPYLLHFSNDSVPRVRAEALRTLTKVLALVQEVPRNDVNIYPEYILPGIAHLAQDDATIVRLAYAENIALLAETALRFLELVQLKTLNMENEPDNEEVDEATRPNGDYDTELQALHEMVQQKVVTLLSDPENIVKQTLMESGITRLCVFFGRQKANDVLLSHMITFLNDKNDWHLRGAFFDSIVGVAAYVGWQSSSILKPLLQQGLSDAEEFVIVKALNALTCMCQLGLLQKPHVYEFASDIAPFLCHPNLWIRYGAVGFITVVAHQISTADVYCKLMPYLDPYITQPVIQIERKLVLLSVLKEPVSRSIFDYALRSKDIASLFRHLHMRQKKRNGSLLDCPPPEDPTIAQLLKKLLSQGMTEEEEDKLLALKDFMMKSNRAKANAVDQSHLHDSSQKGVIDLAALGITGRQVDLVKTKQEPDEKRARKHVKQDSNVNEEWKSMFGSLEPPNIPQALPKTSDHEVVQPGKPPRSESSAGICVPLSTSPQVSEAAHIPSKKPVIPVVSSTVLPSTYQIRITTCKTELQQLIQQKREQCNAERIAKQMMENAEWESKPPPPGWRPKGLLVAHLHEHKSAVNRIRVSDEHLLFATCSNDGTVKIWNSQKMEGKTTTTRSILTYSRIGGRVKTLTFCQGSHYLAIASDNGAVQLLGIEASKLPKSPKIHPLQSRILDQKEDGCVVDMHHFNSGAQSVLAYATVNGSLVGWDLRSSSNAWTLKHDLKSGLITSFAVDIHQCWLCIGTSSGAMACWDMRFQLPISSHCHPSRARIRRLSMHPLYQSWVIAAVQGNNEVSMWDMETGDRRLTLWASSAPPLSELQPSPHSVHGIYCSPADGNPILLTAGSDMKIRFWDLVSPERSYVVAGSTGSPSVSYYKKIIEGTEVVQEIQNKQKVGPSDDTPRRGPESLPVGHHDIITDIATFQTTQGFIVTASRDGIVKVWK
Sequence of class III PI3K (O88597 whole entry partner): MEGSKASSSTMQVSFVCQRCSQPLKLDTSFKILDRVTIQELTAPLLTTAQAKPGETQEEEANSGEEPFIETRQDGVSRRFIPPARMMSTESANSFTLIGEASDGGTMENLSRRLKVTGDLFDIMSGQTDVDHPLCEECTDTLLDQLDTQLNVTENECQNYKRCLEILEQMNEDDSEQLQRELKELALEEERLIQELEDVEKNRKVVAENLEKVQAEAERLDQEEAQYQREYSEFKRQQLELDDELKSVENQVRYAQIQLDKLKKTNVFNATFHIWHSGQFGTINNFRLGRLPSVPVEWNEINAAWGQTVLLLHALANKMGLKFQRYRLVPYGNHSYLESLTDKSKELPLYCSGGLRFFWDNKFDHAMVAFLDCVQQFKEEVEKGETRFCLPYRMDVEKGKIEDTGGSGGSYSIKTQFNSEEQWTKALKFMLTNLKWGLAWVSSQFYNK
Sequence of class III PI3K (Q8CDJ3 whole entry partner): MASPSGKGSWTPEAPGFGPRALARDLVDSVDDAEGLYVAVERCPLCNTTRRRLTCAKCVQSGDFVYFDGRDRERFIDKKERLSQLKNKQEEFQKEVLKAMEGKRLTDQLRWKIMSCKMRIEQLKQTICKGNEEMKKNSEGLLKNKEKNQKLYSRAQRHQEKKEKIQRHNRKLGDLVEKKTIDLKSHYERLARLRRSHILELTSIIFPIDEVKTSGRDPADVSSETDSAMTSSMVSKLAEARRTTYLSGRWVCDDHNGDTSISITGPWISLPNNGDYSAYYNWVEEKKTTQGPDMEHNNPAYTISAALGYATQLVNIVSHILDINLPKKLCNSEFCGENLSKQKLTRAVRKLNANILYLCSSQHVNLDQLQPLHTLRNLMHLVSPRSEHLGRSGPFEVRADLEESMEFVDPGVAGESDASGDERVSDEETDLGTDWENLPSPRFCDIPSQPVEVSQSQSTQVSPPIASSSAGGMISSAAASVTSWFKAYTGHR

## CCN(CCO)CCCC(C)Nc1ccnc2cc(Cl)ccc12 (stereo not shown) [hydroxychloroquine]
[1]
  effect on IL-10 induction of EV-treated BMDCs: efficiently blocked IL-10 induction

## Nc1nc(NCCc2ccc(O)cc2)nc2nc(-c3ccco3)nn12 [ZM241385]
[2]
  effect of A2a antagonist on ASF519-induced IL-10 producing DCs: significantly decreased
  effect of A2a blockage on ASF519-decreased B cells and CD11b+ CD45+ cells: restored

## Cn1cnc(N)c2ncnc1-2 [3-methyladenine]
Class III PI3K
  effect on IL-10 induction of EV-treated BMDCs: efficiently blocked IL-10 induction
